Measured values published in US20200093807A1, “NEW USE OF RIFAMYCIN-NITROIMIDAZOLE CONJUGATE MOLECULE” (TenNor Therapeutics Limited, priority 2017, published 2020).
In brackets after ≈: the same amount, converted by molar mass. Like-named read-outs stand apart in the source and are kept apart here.

Experiments:
[1] = system: Veionella parvula ATCC 17745; assay: MIC, anaerobic agar dilution (CLSI); type: cell-based; details: 35° C., 42-48 hours
[2] = system: Escherichia coli; details: several bacteria such as Escherichia coli; U.S. Pat. No. 7,678,791 B2; cited from earlier work
[3] = system: Bacteroides uniformis MMX 1277; assay: MIC, anaerobic agar dilution (CLSI); type: cell-based; details: MMX1277; Bacteroides uniformis MMX 1277; anaerobic, 35° C., 42-48 hours; read-out: MIC
[4] = system: Lactobacillus gasseri ATCC 33323; assay: MIC, anaerobic agar dilution (CLSI); type: cell-based; details: ATCC33323; Lactobacillus gasseri ATCC 33323; anaerobic, 35° C., 42-48 hours; read-out: MIC
[5] = system: Prevotella intermedia ATCC 25611; assay: MIC, anaerobic agar dilution (CLSI); type: cell-based; details: ATCC25611, 35° C., 42-48 hours
[6] = system: Mobiluncus (mulieris) ATCC 35243; assay: MIC, anaerobic agar dilution (CLSI); type: cell-based; details: ATCC35243, 35° C., 42-48 hours
[7] = system: Bacteroides vulgatus (MET^R) MMX 3490; assay: MIC, anaerobic agar dilution (CLSI); type: cell-based; details: Phocaeicola vulgatus; Bacteroides vulgatus (MET^R) MMX 3490; anaerobic, 35° C., 42-48 hours; read-out: MIC
[8] = system: Mobiluncus (curtisii subsp. curtisii) ATCC 35241; assay: MIC, anaerobic agar dilution (CLSI); type: cell-based; details: ATCC35241, 35° C., 42-48 hours
[9] = system: Prevotella disiens MMX 3446; assay: MIC, anaerobic agar dilution (CLSI); type: cell-based; details: MMX3446, 35° C., 42-48 hours
[10] = system: Clostridium perfringens (MET^R) MMX 3521; assay: microbe, parasite or virus in culture; type: cell-based
[11] = system: Bacteroides thetaiotaomicron (MET^R) MMX 3409; assay: microbe, parasite or virus in culture; type: cell-based
[12] = system: Peptostreptococcus (magnus) ATCC 14956; assay: MIC, anaerobic agar dilution (CLSI); type: cell-based; details: Finegoldia magna, ATCC14956, 35° C., 42-48 hours
[13] = system: Peptococcus (niger) ATCC 27731; assay: MIC, anaerobic agar dilution (CLSI); type: cell-based; details: ATCC27731, 35° C., 42-48 hours
[14] = system: Prevotella disiens MMX 3457; assay: MIC, anaerobic agar dilution (CLSI); type: cell-based; details: MMX3457, 35° C., 42-48 hours
[15] = system: Prevotella asaccharolytica (MET^R) MMX 3552; assay: MIC, anaerobic agar dilution (CLSI); type: cell-based; details: 35° C., 42-48 hours
[16] = system: Bacteroides vulgatus MMX 8348; assay: MIC, anaerobic agar dilution (CLSI); type: cell-based; details: Phocaeicola vulgatus, MMX8348, 35° C., 42-48 hours
[17] = system: Prevotella bivia MMX 3450; assay: MIC, anaerobic agar dilution (CLSI); type: cell-based; details: MMX3450, 35° C., 42-48 hours
[18] = system: Gardnerella; assay: MIC, agar dilution, Gardnerella; type: cell-based; details: Gardnerella as major BV bacteria
[19] = system: Fusobacterium nucleatum ATCC 10953; assay: MIC, anaerobic agar dilution (CLSI); type: cell-based; details: ATCC10953, 35° C., 42-48 hours
[20] = system: Peptoniphilus asaccharolyticus ATCC 29743; assay: MIC, anaerobic agar dilution (CLSI); type: cell-based; details: ATCC29743, 35° C., 42-48 hours
[21] = system: Bifidobacterium (breve) ATCC 15698; assay: MIC, anaerobic agar dilution (CLSI); type: cell-based; details: ATCC15698, 35° C., 42-48 hours
[22] = system: Bacteroides gracilis ATCC 33236; assay: MIC, anaerobic agar dilution (CLSI); type: cell-based; details: Campylobacter gracilis, ATCC33236; Bacteroides gracilis ATCC 33236; anaerobic, 35° C., 42-48 hours; read-out: MIC
[23] = system: Lactobacillus crispatus ATCC 33820; assay: MIC, anaerobic agar dilution (CLSI); type: cell-based; details: ATCC33820; Lactobacillus crispatus ATCC 33820; anaerobic, 35° C., 42-48 hours; read-out: MIC
[24] = system: Peptostreptococcus anaerobius ATCC 27337; assay: MIC, anaerobic agar dilution (CLSI); type: cell-based; details: ATCC27337, 35° C., 42-48 hours
[25] = system: Treponema denticola ATCC 35405; assay: MIC, anaerobic agar dilution (CLSI); type: cell-based; details: ATCC35405, 35° C., 42-48 hours
[26] = system: Atopobium vaginae BAA-55; assay: MIC, anaerobic agar dilution (CLSI); type: cell-based; details: Fannyhessea vaginae, BAA55; Atopobium vaginae BAA-55; anaerobic, 35° C., 42-48 hours; read-out: MIC
[27] = system: Clostridium sporogenes ATCC 19404; assay: MIC, anaerobic agar dilution (CLSI); type: cell-based; details: ATCC19404, 35° C., 42-48 hours
[28] = system: Anaerococcus (Anaerococcus(prevotii)) ATCC 9321; assay: MIC, anaerobic agar dilution (CLSI); type: cell-based; details: 35° C., 42-48 hours
[29] = system: Eubacterium (rectale) ATCC 33656; assay: MIC, anaerobic agar dilution (CLSI); type: cell-based; details: Agathobacter rectalis, ATCC33656, 35° C., 42-48 hours
[30] = system: Gardnerella vaginalis ATCC 49145; assay: MIC, anaerobic agar dilution (CLSI); type: cell-based; details: ATCC49145, 35° C., 42-48 hours
[31] = system: Bacteroides fragilis (MET^R) MMX 3387; assay: MIC, anaerobic agar dilution (CLSI); type: cell-based; details: Bacteroides fragilis (MET^R) MMX 3387; anaerobic, 35° C., 42-48 hours; read-out: MIC
[32] = system: Fusobacterium nucleatum ATCC 25586; assay: MIC, anaerobic agar dilution (CLSI); type: cell-based; details: ATCC25586, 35° C., 42-48 hours
[33] = system: Gardnerella vaginalis ATCC 14018; assay: MIC, anaerobic agar dilution (CLSI); type: cell-based; details: ATCC14018, 35° C., 42-48 hours
[34] = system: Bacteroides fragilis (QC) ATCC 25285; assay: MIC, anaerobic agar dilution (CLSI); type: cell-based; details: ATCC25285, 35° C., 42-48 hours
[35] = system: Prevotella bivia (MET^R) MMX 3454; assay: MIC, anaerobic agar dilution (CLSI); type: cell-based; details: 35° C., 42-48 hours
[36] = system: Lactobacillus jensenii ATCC 25258; assay: MIC, anaerobic agar dilution (CLSI); type: cell-based; details: ATCC25258; Lactobacillus jensenii ATCC 25258; anaerobic, 35° C., 42-48 hours; read-out: MIC
[37] = system: Actinomyces naeslundii ATCC 12104; assay: MIC, anaerobic agar dilution (CLSI); type: cell-based; details: ATCC12104, 35° C., 42-48 hours
[38] = system: Prevotella bivia ATCC 29303; assay: MIC, anaerobic agar dilution (CLSI); type: cell-based; details: ATCC29303, 35° C., 42-48 hours
[39] = system: Bacteroides ovatus (MET^R) MMX 3504; assay: MIC, anaerobic agar dilution (CLSI); type: cell-based; details: 35° C., 42-48 hours
[40] = system: Bifidobacterium longum ATCC 15707; assay: MIC, anaerobic agar dilution (CLSI); type: cell-based; details: ATCC15707, 35° C., 42-48 hours

| Structure (SMILES) | MIC [1] [µg/mL] | MIC [3] [µg/mL] | MIC [4] [µg/mL] | MIC [5] [µg/mL] | MIC [6] [µg/mL] | MIC [7] [µg/mL] | MIC [8] [µg/mL] | MIC [9] [µg/mL] | MIC [10] [µg/mL] | MIC [12] [µg/mL] | MIC [13] [µg/mL] | MIC [14] [µg/mL] | MIC [15] [µg/mL] | MIC [16] [µg/mL] | MIC [17] [µg/mL] | MIC [18] [µg/mL] | MIC [19] [µg/mL] | MIC [20] [µg/mL] | MIC [21] [µg/mL] | MIC [22] [µg/mL] | also measured |
| --- | --- | --- | --- | --- | --- | --- | --- | --- | --- | --- | --- | --- | --- | --- | --- | --- | --- | --- | --- | --- | --- |
| CO[C@H]1/C=C/O[C@@]2(C)Oc3c(C)c(O)c4c(c3C2=O)C2=NC3(CCN(CCn5c([N+](=O)[O-])cnc5C)CC3)NC2=C(NC(=O)/C(C)=C\C=C\[C@H](C)[C@H](O)[C@@H](C)[C@@H](O)[C@@H](C)[C@H](OC(C)=O)[C@@H]1C)C4=O [Compound I, 4-deoxy-3,4-[2-spiro-[2-(2-methyl-5-nitro-imidazole-1-yl)ethyl]-piperidine-4-yl]-(1-hydrogen)-imidazo-(2,5-dihydro) rifamycin S] | 2 (≈ 2.12 µM) | 0.03 (≈ 0.0318 µM) | 0.015 (≈ 0.0159 µM) | 0.0005 (≈ 0.00053 µM) | 0.001 (≈ 0.00106 µM) | 0.03 (≈ 0.0318 µM) | 0.002 (≈ 0.00212 µM) | 0.015 (≈ 0.0159 µM) | 2 (≈ 2.12 µM) | 0.0005 (≈ 0.00053 µM) | 0.0005 (≈ 0.00053 µM) | 0.008 (≈ 0.00847 µM) | 0.008 (≈ 0.00847 µM) | 0.03 (≈ 0.0318 µM) | 0.0005 (≈ 0.00053 µM) | 0.004 (≈ 0.00424 µM) | 0.12 (≈ 0.127 µM) | 0.008 (≈ 0.00847 µM) | 0.015 (≈ 0.0159 µM) | 0.5 (≈ 0.53 µM) | antimicrobial activity [2]: has antimicrobial activity; MIC ([11]; Bacteroides thetaiotaomicron (MET^R) MMX 3409, anaerobic, 35° C., 42-48 hours, read-out: MIC): 0.03 µg/mL (≈ 0.0318 µM); MIC [23]: 4 µg/mL (≈ 4.24 µM); MIC [24]: 0.002 µg/mL (≈ 0.00212 µM); MIC [25]: 0.002 µg/mL (≈ 0.00212 µM); MIC [26]: 0.03 µg/mL (≈ 0.0318 µM); MIC [27]: 0.015 µg/mL (≈ 0.0159 µM); MIC [28]: 0.0005 µg/mL (≈ 0.00053 µM); MIC [29]: 0.0005 µg/mL (≈ 0.00053 µM); MIC [30]: 0.004 µg/mL (≈ 0.00424 µM); MIC [31]: 0.015 µg/mL (≈ 0.0159 µM); MIC [32]: 0.001 µg/mL (≈ 0.00106 µM); MIC [33]: 0.004 µg/mL (≈ 0.00424 µM); MIC [34]: 0.03 µg/mL (≈ 0.0318 µM); MIC [35]: 0.015 µg/mL (≈ 0.0159 µM); MIC [36]: 0.008 µg/mL (≈ 0.00847 µM); MIC [37]: 0.001 µg/mL (≈ 0.00106 µM); MIC [38]: 0.015 µg/mL (≈ 0.0159 µM); MIC [39]: 0.12 µg/mL (≈ 0.127 µM); MIC [40]: 0.015 µg/mL (≈ 0.0159 µM) |
| CO[C@H]1/C=C/O[C@@]2(C)Oc3c(C)c(O)c4c(O)c(c(/C=N/N5CCN(C)CC5)c(O)c4c3C2=O)NC(=O)/C(C)=C\C=C\[C@H](C)[C@H](O)[C@@H](C)[C@@H](O)[C@@H](C)[C@H](OC(C)=O)[C@@H]1C [Rifampicin] | 4 (≈ 4.86 µM) | 0.5 (≈ 0.608 µM) | 0.25 (≈ 0.304 µM) | 0.12 (≈ 0.146 µM) | 0.004 (≈ 0.00486 µM) | 0.25 (≈ 0.304 µM) | 0.004 (≈ 0.00486 µM) | 0.12 (≈ 0.146 µM) | 1 (≈ 1.22 µM) | 1 (≈ 1.22 µM) | 0.004 (≈ 0.00486 µM) | 0.5 (≈ 0.608 µM) | 0.004 (≈ 0.00486 µM) | 0.25 (≈ 0.304 µM) | 0.06 (≈ 0.0729 µM) | 0.5 (≈ 0.608 µM) | 1 (≈ 1.22 µM) | 0.004 (≈ 0.00486 µM) | 0.25 (≈ 0.304 µM) | 16 (≈ 19.4 µM) | MIC ([11]; Bacteroides thetaiotaomicron): 0.5 µg/mL (≈ 0.608 µM); MIC [23]: 2 µg/mL (≈ 2.43 µM); MIC [24]: 0.004 µg/mL (≈ 0.00486 µM); MIC [25]: 0.004 µg/mL (≈ 0.00486 µM); MIC [26]: 0.25 µg/mL (≈ 0.304 µM); MIC [27]: 1 µg/mL (≈ 1.22 µM); MIC [28]: 0.03 µg/mL (≈ 0.0365 µM); MIC [29]: 0.015 µg/mL (≈ 0.0182 µM); MIC [30]: 0.5 µg/mL (≈ 0.608 µM); MIC [31]: 0.25 µg/mL (≈ 0.304 µM); MIC [32]: 0.5 µg/mL (≈ 0.608 µM); MIC [33]: 0.5 µg/mL (≈ 0.608 µM); MIC [34]: 0.25 µg/mL (≈ 0.304 µM); MIC [35]: 0.004 µg/mL (≈ 0.00486 µM); MIC [36]: 0.5 µg/mL (≈ 0.608 µM); MIC [37]: 0.03 µg/mL (≈ 0.0365 µM); MIC [38]: 0.5 µg/mL (≈ 0.608 µM); MIC [39]: 1 µg/mL (≈ 1.22 µM); MIC [40]: 0.5 µg/mL (≈ 0.608 µM) |
